Assay results reported in patent US4220647A, “1,2,3,4-Tetrahydroisoquinolines and the preparation thereof” (Fujisawa Pharmaceutical Co., Ltd., priority 1974, dated 1980).

Tested on: Intestinal motility in dogs (jejunum)
Assay: Intestinal motility in dogs (inhibition of jejunal motility, balloon method)
Type: in vivo, dog (mongrel)
Conditions: Canis lupus familiaris; mongrel dogs 8 to 16 kg, urethane (1.5 g/kg) and morphine (15 mg/kg) anesthesia; balloon at jejunum, 10 cm H2O; maximum change in motility amplitude; route not given; read-out: 50% inhibition dose (ED50)
Method: Intestinal motility in dogs: Method: Mongrel dogs weighing 8 to 16 kg which were withheld from any food and water for 24 hours were anesthetized with a combination of urethane (1.5 g/kg) and morphine (15 mg/kg). A balloon was placed at the jejunum of the dog, compressed at a pressure of 10 cm. H2 O and connected to a strain gauge. Changes in the motility were principally recorded in terms of the amplitude of the movements, but the number of movements occurring were also taken into account. The maximum change in all the determinations served as the basis for calculations of the 50% inhibition dose (ED50).

| SMILES | ED50 |
| --- | --- |
| Oc1cc2c(cc1O)C(CNc1ccc(F)cc1)NCC2 (stereo not drawn) [Compound No. 1, 1-(p-Fluoroanilinomethyl)-6,7-dihydroxy-1,2,3,4-tetrahydroisoquinoline d-camphor-10-sulfonate] | 3 µg/kg |
| Cl.Oc1cc2c(cc1O)C(CNc1ccc(Cl)cc1)NCC2 (stereo not drawn) [Compound No. 2, 1-(p-Chloroanilinomethyl)-6,7-dihydroxy-1,2,3,4-tetrahydroisoquinoline hydrochloride] | 1.5 µg/kg |
| Cl.Cl.Oc1ccc(NCC2NCCc3cc(O)c(O)cc32)cc1 (stereo not drawn) [Compound No. 3, 1-(p-Hydroxyanilinomethyl)-6,7-dihydroxy-1,2,3,4-tetrahydroisoquinoline dihydrochloride] | 4 µg/kg |
